Measurements from US20260008760A1, “DIPEPTIDYL PEPTIDASE 1 INHIBITORS AND USES THEREOF” (Insmed Incorporated, priority 2024, published 2026).

Assays:
human DPP1 enzyme = human DPP1 enzyme (Homo sapiens, UniProt P53634); assay: Human DPP1 Enzyme Single-Point Percent Inhibition Testing (HL-60 lysate); assay type: biochemical; set-up: A crude lysate of HL-60 cells (ATCC; Manassas, VA) was used as a source of human DPP1 enzyme; host or cells: HL-60 cells (crude lysate); details: final compound concentration of 10 nM, 400 μM H-Gly-Arg-AMC, n = 1
Method: Example 98. Human DPP1 Enzyme Single-Point Percent Inhibition Testing
A crude lysate of HL-60 cells (ATCC; Manassas, VA) was used as a source of human DPP1 enzyme in the assay. Lysate was prepared in 1% Triton X-100 in PBS at a concentration of 20,000 live cells per μL of lysis buffer and was centrifuged at 16,000 rcf for 10 minutes at 4° C., after which supernatant was collected and flash-frozen in liquid nitrogen. Test articles were applied to human DPP1 enzyme in Assay Buffer (25 mM MES pH 6.0, 50 mM NaCl, 5 mM DTT) in a total reaction volume of 125 μL. 25 μL of compound diluted to 50 nM in Assay Buffer plus 5% DMSO was first added to 50 μL of HL-60 lysate diluted to contain a DPP1 enzyme concentration of roughly 1 ng/μL and allowed to pre-incubate for 10 minutes at 37° C. after which 50 μL of 1000 μM H-Gly-Arg-AMC substrate (Bachem; St. Torrance, CA) was added, giving final compound concentration of 10 nM, a final substrate concentration of 400 μM and a final DMSO concentration of 1%. Substrate cleavage was measured for 90 minutes at 37° C., with fluorescence at Excitation/Emission 350/450 nm measured every 5 minutes. DPP1 concentration was interpolated based on its activity relative to a standard curve of activated human recombinant DPP1 enzyme. Percent inhibition at 10 nM was calculated for each test article based on remaining DPP1 activity compared to enzyme activity in wells that received only vehicle control.

DPP1 in HL-60 cells = DPP1 in HL-60 cells (Homo sapiens, UniProt P53634); assay: DPP1 Cell Single-Point Percent Inhibition Testing; assay type: cell-based; set-up: host or cells: HL-60 cells; details: final compound concentration 5 nM, n = 1
Method: Example 100. DPP1 Cell Single-Point Percent Inhibition Testing
HL-60 cells (ATCC; Manassas, VA) were maintained in RPMI-1640 supplemented with 20% heat-inactivated FBS and 1× Antibiotic Antimycotic (Cytiva; Marlborough, MA). Media was changed every three to four days and cells were not allowed to exceed 1×10^6 cells per mL. Prior to assay, cells were collected by centrifugation at 500 rcf for 3 minutes, resuspended in RPMI (with no additional supplements) and counted. Cells were diluted in RPMI to a concentration of 5×10^5 live cells per mL and transferred to black 96-well plates for assay, 60 μL per well. Test articles were diluted to 25 nM in RPMI plus 0.5% DMSO, and 20 μL was added to each assay well. Compound was allowed to pre-incubate with cells with gentle shaking at 100 rpm for 60 minutes at 37° C. in a cell culture incubator maintained at 5% CO2, after which 20 μL of 500 μM H-Gly-Phe-AFC cell-permeable substrate (MP Biomedicals; Solon, OH) in RPMI was added to each well, giving final compound concentration of 5 nM, a final substrate concentration of 100 μM and a final DMSO concentration of 0.1%. Plates were returned to the incubator with shaking at 100 rpm for 30 minutes, after which fluorescence was measured at Excitation/Emission 400/505 nm. Percent Inhibition was calculated from RFU values by first subtracting background values (wells in which RPMI was substituted for cells) from each well, and then subtracting background-subtracted RFU derived from wells that received a final concentration of 10 μM brensocatib. This value represents the non-specific substrate cleavage from the HL-60 cells, and the remaining RFU should theoretically be solely the contribution of DPP1 enzyme activity. The final percent inhibition value was calculated for each test article based on remaining RFU compared to RFU from wells that received only vehicle control.

DPP1 in HL-60 cells, sequence (P53634 25-463): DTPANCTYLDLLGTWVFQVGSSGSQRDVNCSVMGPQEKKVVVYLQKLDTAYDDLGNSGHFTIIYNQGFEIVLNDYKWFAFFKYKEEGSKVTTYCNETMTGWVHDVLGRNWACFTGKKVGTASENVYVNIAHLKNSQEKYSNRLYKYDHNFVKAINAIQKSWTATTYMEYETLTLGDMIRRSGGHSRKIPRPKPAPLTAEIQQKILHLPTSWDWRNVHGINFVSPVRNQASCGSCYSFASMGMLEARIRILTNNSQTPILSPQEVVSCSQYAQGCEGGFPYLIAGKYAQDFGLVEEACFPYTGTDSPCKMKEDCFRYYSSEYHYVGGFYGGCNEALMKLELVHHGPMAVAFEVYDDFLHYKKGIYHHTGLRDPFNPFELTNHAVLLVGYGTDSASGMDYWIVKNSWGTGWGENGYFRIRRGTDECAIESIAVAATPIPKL
human DPP1 enzyme, sequence (P53634 25-463): as above

Structure (SMILES)	inhibition at 0.01 µM (human DPP1 enzyme) [%]	inhibition at 0.005 µM (DPP1 in HL-60 cells) [%]
CO[C@H]1CCO[C@H](C(=O)N[C@H](C#N)Cc2cc3c(cc2F)-c2ccc(C#N)cc2CO3)CNC1 [Compound B24]	40 to 66.7	≤ 76.5
CO[C@H]1CCO[C@H](C(=O)NC(C#N)Cc2cc3c(cc2F)-c2cc(C#N)ccc2CO3)CNC1 (stereo partly shown) [Compound B25]	40 to 66.7	≤ 76.5
CO[C@H]1CCO[C@H](C(=O)NC(C#N)Cc2cc3c(cc2F)-c2ccc(F)cc2CO3)CNC1 (stereo partly shown) [Compound B26]	40 to 66.7	≤ 76.5
N#Cc1ccc2c(c1)COc1cc(C[C@@H](C#N)NC(=O)[C@@H]3CNCCCCO3)c(F)cc1-2 [Compound B28]	40 to 66.7	≤ 76.5
N#Cc1ccc2c(c1)-c1cc(F)c(CC(C#N)NC(=O)[C@@H]3CNCCCCO3)cc1OC2 (stereo partly shown) [Compound B29]	≤ 40	≤ 76.5
N#C[C@H](Cc1cc2c(cc1F)-c1ccc(F)cc1CO2)NC(=O)[C@@H]1CNCCCCO1 [Compound B30]	≤ 40	≤ 76.5
N#CC(Cc1cc2c(cc1F)-c1cc(C3COC3)c(F)cc1CO2)NC(=O)[C@@H]1CNCCCO1 (stereo partly shown) [Compound B31]	40 to 66.7	76.5 to 93.9
N#C[C@H](Cc1cc2c(cc1F)-c1ccc(F)cc1CO2)NC(=O)[C@@H]1CNCCCO1 [Compound B34]	40 to 66.7	≤ 76.5
CO[C@@H]1CCNC[C@@H](C(=O)NC(C#N)Cc2cc3c(cc2F)-c2cc4c(cc2CO3)oc(=O)n4C)OC1 (stereo partly shown) [Compound C11]	≥ 66.7	76.5 to 93.9
COC1CNC[C@@H](C(=O)NC(C#N)Cc2cc3c(cc2F)-c2cc4c(cc2CO3)oc(=O)n4C)OC1 (stereo partly shown) [Compound C14]	≥ 66.7	≤ 76.5
CO[C@H]1CCO[C@H](C(=O)NC(C#N)Cc2cc3c(cc2F)-c2cc4c(cc2CO3)oc(=O)n4C)CNC1 (stereo partly shown) [Compound C16]	≥ 66.7	≤ 76.5
CO[C@H]1CCO[C@H](C(=O)NC(C#N)Cc2cc3c(cc2F)-c2ccc4oc(=O)n(C)c4c2CO3)CNC1 (stereo partly shown) [Compound C17]	40 to 66.7	≤ 76.5
C[C@@H]1NC[C@@H](C(=O)NC(C#N)Cc2cc3c(cc2F)-c2cc4c(cc2CO3)oc(=O)n4C)OC[C@H]1O (stereo partly shown) [Compound C19]	≥ 66.7	≤ 76.5
C[C@@H]1NC[C@@H](C(=O)NC(C#N)Cc2cc3c(cc2F)-c2ccc4oc(=O)n(C)c4c2CO3)OC[C@H]1O (stereo partly shown) [Compound C20]	≥ 66.7	≤ 76.5
C[C@@H]1NC[C@@H](C(=O)NC(C#N)Cc2cc3c(cc2F)-c2cc4c(cc2CO3)oc(=O)n4C)OC[C@@H]1O (stereo partly shown) [Compound C22]	≥ 66.7	≤ 76.5
C[C@@H]1NC[C@@H](C(=O)NC(C#N)Cc2cc3c(cc2F)-c2ccc4oc(=O)n(C)c4c2CO3)OC[C@@H]1O (stereo partly shown) [Compound C23]	40 to 66.7	≤ 76.5
Cn1c(=O)oc2cc3c(cc21)-c1cc(F)c(CC(C#N)NC(=O)[C@@H]2CNCCCCO2)cc1OC3 (stereo partly shown) [Compound C25]	≥ 66.7	76.5 to 93.9
Cn1c(=O)oc2ccc3c(c21)COc1cc(CC(C#N)NC(=O)[C@@H]2CNCCCCO2)c(F)cc1-3 (stereo partly shown) [Compound C26]	≤ 40	≤ 76.5
Cn1c(=O)oc2cc3c(cc21)-c1cc(F)c(CC(C#N)NC(=O)[C@@H]2CNCCCO2)cc1OC3 (stereo partly shown) [Compound C28]	≥ 66.7	76.5 to 93.9
CO[C@@H]1CCNC[C@@H](C(=O)N[C@H](C#N)Cc2ccc(-c3ccc4c(c3)C3(CCCN(C)C3)C(=O)N4C)cc2)OC1 (stereo partly shown) [Compound F7]	≥ 66.7	≤ 76.5
